Test results as given in ChEMBL document CHEMBL1201862, “PubChem BioAssay data set” (2004).
The source made the active and inactive calls.

How the values were obtained:
Paired box protein Pax-8 = Paired box protein Pax-8 (Homo sapiens, UniProt Q06710); test: PAX8 transcriptional activity inhibition in RMG-I – RMG-I cells, luciferase, cherry-pick, dose response (AID 687027); assay type: functional, cell-based;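 also: luciferase reporter driven by Pax8 target thyroperoxidase promoter measured by SteadyGlo luminescence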
Sequence of Paired box protein Pax-8 (Q06710 whole entry): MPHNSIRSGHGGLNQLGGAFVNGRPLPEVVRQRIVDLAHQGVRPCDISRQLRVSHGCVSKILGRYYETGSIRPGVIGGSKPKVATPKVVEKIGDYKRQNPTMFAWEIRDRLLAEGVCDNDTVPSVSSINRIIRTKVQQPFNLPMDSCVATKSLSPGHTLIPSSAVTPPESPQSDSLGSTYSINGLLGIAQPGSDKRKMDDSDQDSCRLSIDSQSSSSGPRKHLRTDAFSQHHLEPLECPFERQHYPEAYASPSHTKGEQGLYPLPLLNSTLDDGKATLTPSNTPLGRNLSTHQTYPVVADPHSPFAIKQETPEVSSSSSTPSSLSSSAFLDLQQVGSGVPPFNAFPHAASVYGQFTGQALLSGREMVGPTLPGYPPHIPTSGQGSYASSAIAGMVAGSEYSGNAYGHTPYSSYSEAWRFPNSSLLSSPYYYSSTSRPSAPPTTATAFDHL

[1] = IGROV1 cell killing – plate reader, dry powder samples, PAX8 inhibitor project, dose response (AID 743043); assay type: functional, cell-based; conditions: IGROV-1
[2] = OVCAR8 cell viability loss – plate reader, dry powder samples, PAX8 project, dose response (AID 743197); assay type: functional, cell-based; conditions: OVCAR-8
[3] = DRD fibroblast viability loss – cell-based, non-viral oncogenic, luminescence, dose response (AID 1934); assay type: functional; conditions: Homo sapiens
BJ [4] = test: BJ-TERT fibroblast viability loss – cell-based, RAS-independent, luminescence, dose response (AID 1933); assay type: functional; conditions: Homo sapiens
BJ [5] = test: BJ-TERT-LT-ST fibroblast viability loss – cell-based, RAS-independent, luminescence, dose response (AID 1935); assay type: functional; conditions: Homo sapiens;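 also: BJ fibroblasts immortalized with TERT plus LT and ST oncogenes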
BJ [6] = test: cells; assay type: functional, cell-based; conditions: Homo sapiens
HT-1080 = test: HT1080 cell viability loss – fluorescence readout (AID 620); assay type: functional, cell-based; conditions: Homo sapiens
[7] = biological target: Luciferin 4-monooxygenase (Photinus pyralis, UniProt P08659); test: Counter Screen for Luciferase-based Assay Positives. [Related pubchem assays: 620, 618, 411 ]
Sequence of Luciferin 4-monooxygenase (P08659 whole entry): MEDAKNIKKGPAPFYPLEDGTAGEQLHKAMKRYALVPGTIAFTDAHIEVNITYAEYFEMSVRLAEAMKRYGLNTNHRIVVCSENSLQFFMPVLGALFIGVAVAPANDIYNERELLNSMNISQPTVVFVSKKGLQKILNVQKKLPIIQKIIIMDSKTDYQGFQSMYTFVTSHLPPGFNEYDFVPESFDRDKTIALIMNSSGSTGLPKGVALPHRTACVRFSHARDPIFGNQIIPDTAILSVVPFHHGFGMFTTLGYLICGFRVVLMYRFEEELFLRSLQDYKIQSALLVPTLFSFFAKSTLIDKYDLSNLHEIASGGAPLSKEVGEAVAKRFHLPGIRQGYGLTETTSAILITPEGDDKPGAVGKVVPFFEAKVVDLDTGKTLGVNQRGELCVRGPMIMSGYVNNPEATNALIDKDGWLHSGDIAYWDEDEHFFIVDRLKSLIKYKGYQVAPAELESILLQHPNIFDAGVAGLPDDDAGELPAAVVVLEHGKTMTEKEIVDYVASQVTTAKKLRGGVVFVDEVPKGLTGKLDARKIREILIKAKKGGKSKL

Estrogen receptor beta = Estrogen receptor beta (Homo sapiens, UniProt Q92731);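 also: recombinant ER-beta bound to coactivator SRC1 peptide in presence of estradiol agonist; inhibitors block coactivator peptide binding and lower the FRET signal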
Sequence of Estrogen receptor beta (Q92731 whole entry): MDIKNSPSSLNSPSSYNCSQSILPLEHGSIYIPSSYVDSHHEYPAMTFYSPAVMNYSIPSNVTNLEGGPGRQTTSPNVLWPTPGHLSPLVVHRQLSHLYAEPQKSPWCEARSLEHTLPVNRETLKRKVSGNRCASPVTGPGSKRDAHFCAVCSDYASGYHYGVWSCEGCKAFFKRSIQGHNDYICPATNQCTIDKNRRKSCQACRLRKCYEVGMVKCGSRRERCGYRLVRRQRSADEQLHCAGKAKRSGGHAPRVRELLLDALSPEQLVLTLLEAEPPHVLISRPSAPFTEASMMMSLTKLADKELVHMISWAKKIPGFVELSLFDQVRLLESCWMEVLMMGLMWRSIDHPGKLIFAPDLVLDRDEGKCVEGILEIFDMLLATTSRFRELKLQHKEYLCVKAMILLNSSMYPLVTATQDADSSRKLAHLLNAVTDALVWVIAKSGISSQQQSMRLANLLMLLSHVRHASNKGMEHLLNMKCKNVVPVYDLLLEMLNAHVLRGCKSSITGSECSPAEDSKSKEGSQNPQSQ

Aminopeptidase N = biological target: T1, Aminopeptidase N (Plasmodium falciparum FcB1/Columbia, UniProt O96935); test: malaria alanyl aminopeptidase activity blockers – biochemical, fluorogenic H-Leu-NHMec substrate, 1536-well (AID 1445); set-up: species or system Plasmodium falciparum 3D7, 3D7
T1 sequence (O96935 whole entry): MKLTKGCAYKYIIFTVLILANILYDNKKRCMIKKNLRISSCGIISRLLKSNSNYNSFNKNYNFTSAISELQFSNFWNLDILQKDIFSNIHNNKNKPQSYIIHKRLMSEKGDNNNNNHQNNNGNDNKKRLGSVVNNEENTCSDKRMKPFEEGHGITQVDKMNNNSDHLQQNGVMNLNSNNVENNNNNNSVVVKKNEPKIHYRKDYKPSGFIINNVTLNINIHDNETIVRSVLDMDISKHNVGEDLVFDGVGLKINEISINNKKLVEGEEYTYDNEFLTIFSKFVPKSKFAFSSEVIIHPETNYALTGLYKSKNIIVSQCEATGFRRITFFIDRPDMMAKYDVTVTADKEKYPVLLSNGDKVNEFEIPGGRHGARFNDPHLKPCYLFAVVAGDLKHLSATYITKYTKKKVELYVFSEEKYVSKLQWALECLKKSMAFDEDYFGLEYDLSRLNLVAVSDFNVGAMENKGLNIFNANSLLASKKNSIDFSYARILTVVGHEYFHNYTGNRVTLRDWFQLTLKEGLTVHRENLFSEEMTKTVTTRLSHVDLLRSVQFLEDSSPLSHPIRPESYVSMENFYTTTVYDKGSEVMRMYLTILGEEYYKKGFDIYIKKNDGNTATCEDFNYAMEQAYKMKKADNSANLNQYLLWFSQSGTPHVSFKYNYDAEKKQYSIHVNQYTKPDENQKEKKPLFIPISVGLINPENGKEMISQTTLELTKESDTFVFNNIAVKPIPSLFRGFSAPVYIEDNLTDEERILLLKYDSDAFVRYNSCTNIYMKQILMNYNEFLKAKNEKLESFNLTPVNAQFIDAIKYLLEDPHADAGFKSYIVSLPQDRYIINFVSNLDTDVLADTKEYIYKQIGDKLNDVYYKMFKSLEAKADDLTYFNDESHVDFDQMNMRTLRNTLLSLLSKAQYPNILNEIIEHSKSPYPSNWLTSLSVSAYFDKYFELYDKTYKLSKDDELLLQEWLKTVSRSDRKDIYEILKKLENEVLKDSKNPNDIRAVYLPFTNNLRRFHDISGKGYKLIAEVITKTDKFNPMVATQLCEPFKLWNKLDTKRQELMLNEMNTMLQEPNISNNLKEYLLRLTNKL

Prothrombin = Prothrombin (Homo sapiens, UniProt P00734); test: Thrombin 1536 HTS Dose Response Confirmation. [Related pubchem assays: 1046 (Thrombin 1536 HTS; hits were confirmed in this assay)]; assay type: functional
[8] = OVCAR-3 cell viability loss – plate reader, dry powder samples, PAX8 inhibitor project, dose response (AID 743044); assay type: functional, cell-based
[9] = NIH3T3 cell viability loss – ATP luminescence, mouse fibroblasts, counter-screen, dose response (AID 2010); assay type: functional, cell-based;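 also: cells exposed to compound for about 90 hours before reading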
[10] = Trypanosoma cruzi growth suppression in host cells – NIH3T3 host cells, beta-gal luminescence, confirmation (AID 2044); assay type: functional, cell-based;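 also: intracellular parasites grown in NIH/3T3 mouse fibroblasts as host cells; luminescent beta-galactosidase reporter signal from transgenic T. cruzi replicating inside host cells; inhibitors lower the luminescence signal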
[11] = biological target: Serine/threonine-protein phosphatase PP1-alpha catalytic subunit (Homo sapiens, UniProt P62136); test: inhibition of protein phosphatase 1 activity – biochemical, fluorescence, dose response (AID 2403);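 also: phosphatase turnover of OMFP into fluorescent 3-O-methylfluorescein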
Sequence of Serine/threonine-protein phosphatase PP1-alpha catalytic subunit (P62136 whole entry): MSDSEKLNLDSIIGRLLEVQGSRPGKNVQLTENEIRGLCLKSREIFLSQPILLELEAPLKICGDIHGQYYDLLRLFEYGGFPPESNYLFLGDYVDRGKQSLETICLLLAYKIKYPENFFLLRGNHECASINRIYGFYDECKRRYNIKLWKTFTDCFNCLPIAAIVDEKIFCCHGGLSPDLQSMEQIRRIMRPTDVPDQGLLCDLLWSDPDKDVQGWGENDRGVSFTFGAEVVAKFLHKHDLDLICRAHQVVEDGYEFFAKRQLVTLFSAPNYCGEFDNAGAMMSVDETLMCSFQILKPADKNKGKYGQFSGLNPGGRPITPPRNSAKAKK

[12] = biological target: T2, Serine/threonine-protein phosphatase (Homo sapiens, UniProt Q9BPW0); test: Counterscreen for inhibitors of PP1: fluorescence-based biochemical high throughput dose response assay to identify inhibitors of Protein Phosphatase 5 (PP5). [Related pubchem assays: 2034 (Summary (PP5 inhibitors)), 1987 (PP5 inhibitors in singlate), 2235 (PP1 inhibitors in singlate)]
T2 sequence (Q9BPW0 whole entry): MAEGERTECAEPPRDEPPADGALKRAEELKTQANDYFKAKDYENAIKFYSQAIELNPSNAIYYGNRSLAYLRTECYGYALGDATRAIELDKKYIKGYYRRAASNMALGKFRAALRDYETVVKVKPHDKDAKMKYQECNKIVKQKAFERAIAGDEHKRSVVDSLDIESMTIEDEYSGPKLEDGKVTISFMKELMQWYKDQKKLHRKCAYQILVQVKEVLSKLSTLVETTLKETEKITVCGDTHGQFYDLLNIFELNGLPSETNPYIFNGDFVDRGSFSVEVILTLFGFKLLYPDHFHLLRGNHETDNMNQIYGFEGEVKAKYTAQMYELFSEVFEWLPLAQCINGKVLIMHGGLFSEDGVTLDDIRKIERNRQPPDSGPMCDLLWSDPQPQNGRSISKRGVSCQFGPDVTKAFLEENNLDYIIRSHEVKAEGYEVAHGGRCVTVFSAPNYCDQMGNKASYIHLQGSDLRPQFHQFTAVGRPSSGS

cells [13] = test: cells
[14] = viability of uninfected HEp-2 cells – cell-based, HTS, cytotoxicity control for RSV inhibitor project, dose response (AID 2410); assay type: functional; conditions: human respiratory syncytial virus
INS1 = test: INS-1E survival protection against cytokine death – cell-based, luminescence, retest, dose response (AID 449756); assay type: functional; conditions: Rattus norvegicus;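 also: cell death triggered by IL-1 beta plus TNF-alpha plus IFN-gamma mixture; protective hits raise ATP signal compared with cytokine alone wells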
cells [15] = test: cells; remark: listed apart in the source
[16] = biological target: T3, Oxysterols receptor LXR-beta (Homo sapiens, UniProt P55055); assay type: functional, cell-based;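 also: Cell-based luminescence dose-response assay of agonist activity at LXR, run as a confirmatory counterscreen to a daf-12 agonist screen; agonist potency from rising luciferase signal of a Gal4-LXR reporter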
T3 sequence (P55055 whole entry): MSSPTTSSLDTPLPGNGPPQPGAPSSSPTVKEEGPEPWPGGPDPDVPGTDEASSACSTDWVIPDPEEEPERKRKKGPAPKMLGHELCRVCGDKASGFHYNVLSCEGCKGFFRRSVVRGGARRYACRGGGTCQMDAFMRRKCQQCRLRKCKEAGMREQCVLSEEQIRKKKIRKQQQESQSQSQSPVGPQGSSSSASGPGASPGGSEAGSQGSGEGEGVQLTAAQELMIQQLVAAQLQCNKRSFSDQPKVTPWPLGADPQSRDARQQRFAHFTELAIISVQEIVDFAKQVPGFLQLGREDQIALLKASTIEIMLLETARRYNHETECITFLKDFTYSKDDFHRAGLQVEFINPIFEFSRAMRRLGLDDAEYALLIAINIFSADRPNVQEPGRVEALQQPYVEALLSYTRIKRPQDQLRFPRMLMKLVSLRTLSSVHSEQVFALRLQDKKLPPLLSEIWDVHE

[17] = biological target: T3, Oxysterols receptor LXR-beta; test: LXR agonists, Gal4 luciferase reporter, dose response, counter-screen for ssDAF-12 agonist project, cell-based, luminescence, HEK293, S. stercoralis campaign (AID 720737); assay type: functional; conditions: read-out: IC50 (the source's name)
[18] = Luminescence-based cell-based high throughput dose response assay to identify activators of the DAF-12 from the parasite S. stercoralis (ssDAF-12).; assay type: functional
H4 = test: Luminescence Cell-Based Dose Response HTS to Identify Activators of 5'UTR Stem-Loop Driven Prion Protein mRNA Translation in H4 Neuroglioblastoma Cells. [Related pubchem assays: 1829 (Project Summary), 1814 (Primary HTS)]; assay type: functional; conditions: Homo sapiens
[19] = Luminescence Cell-Based Dose Response HTS to Identify Activators of Luciferase Translation or Activity in H4 […] Cells. [Related pubchem assays: 1829 (Project Summary), 1814 (Primary HTS)]; assay type: functional

In the case of C[C@@H]1CN([C@H](C)CO)C(=O)c2cc(NS(=O)(=O)c3ccccc3)ccc2O[C@@H](C)CCCCO[C@@H]1CN(C)Cc1ccc(Cl)c(Cl)c1, the AC50 (Paired box protein Pax-8) is reported as 4.44 µM (active), the AC50 [1] is reported as 27.8 µM (active) and the AC50 [2] is reported as 46.5 µM (active).

With O=C(c1c(Cl)nc2sccn12)N1CCN(c2cccc(Cl)c2)CC1 the EC50 [3] was 1.56 µM (active), the EC50 (BJ [4]) was 3.07 µM (active) and the EC50 (BJ [5]) was 1.36 µM (inconclusive). The EC50 (BJ [6]) was 75.7 µM (inconclusive), the EC50 (HT-1080) was 11.3 µM (active) and the EC50 [7] was 0.39 µM (active).

In the case of CCN1CCN(Cc2c(O)c(Cl)cc3c(C)cc(=O)oc23)CC1, the IC50 (Estrogen receptor beta) is reported as 18 µM (active) and the IC50 (Aminopeptidase N) is reported as 38.3 µM (active).

For CC1CCc2c(sc(NC(=O)COC(=O)C3CCCO3)c2C#N)C1 (stereo unspecified), the IC50 (Prothrombin) was > 50 µM (not active).

For COc1ccc(S(=O)(=O)Nc2ccc3c(c2)C(=O)N([C@@H](C)CO)C[C@H](C)[C@@H](CN(C)Cc2ccc(C(F)(F)F)cc2)OCCCC[C@H](C)O3)cc1, the AC50 [8] was 46.7 µM (active), the AC50 (Paired box protein Pax-8) was 6.83 µM (active) and the AC50 [1] was 37.9 µM (active). The AC50 [2] was > 70 µM (inactive).

For CCOC(=O)c1cnc(-n2nc(C)cc2C)nc1NCCc1ccccc1, the EC50 [9] was > 30 µM (not active), the EC50 [10] was 2.04 µM (active) and the IC50 [11] was 6.96 µM (active). For the same molecule, the IC50 [12] was > 67 µM (not active).

For COc1ccc(CN2C(=O)c3ccccc3C2C(=O)NC2CCCCCC2)c(OC)c1 (stereo unspecified), the IC50 (Prothrombin) was 10.8 µM (active).

For Cc1ccc(C)c(Nc2c([N+](=O)[O-])cc(C(=O)N3CC(=O)Nc4ccccc43)cc2[N+](=O)[O-])c1, the IC50 (cells [13]) was 41.7 µM (active), the EC50 [9] was > 60 µM (inconclusive) and the EC50 [10] was 0.992 µM (active). For the same molecule, the CC50 [14] was 28.3 µM (active).

With Cc1cc(N2CCOCC2)n2ncc(-c3ccccc3)c2n1 the AC50 (INS1) was 7.88 µM (active), the EC50 (cells [15]) was > 67.5 µM (inactive) and the EC50 (HT-1080) was > 50 µM (not active). For the same molecule, the EC50 [16] was > 67.5 µM (inactive) and the EC50 [7] was 0.2 µM (active).

In the case of Cn1ccnc1SCC(=O)c1c[nH]c2ccccc12, the EC50 [17] is reported as > 67.5 µM (inactive), the IC50 [18] is reported as > 67.5 µM (inactive) and the EC50 (H4) is reported as < 0.195 µM (active). For the same molecule, the EC50 [19] was 0.343 µM (active).

With COc1ccccc1S(=O)(=O)N1CC[C@H]2[C@@H](CO)N(C)c3ccc(-c4ccc(C#N)cc4)cc3[C@H]21 the AC50 [8] was 37.8 µM (active) and the AC50 (Paired box protein Pax-8) was 38.1 µM (active).
